In article PMC9890698 (BMC Biology, 2023):
Values joined by “and” are separate entries in the source; they are usually repeats but may differ in a detail not shown here. Equal entries are not always repeated.

Target: T1, Human P2Y1-R (Homo sapiens, UniProt P47900)
T1 construct: expressed in transfected cells; host or cells: HEK293T/17
Assay: Gαq protein activation BRET2 assay (Gαq-RLuc8/GFP2-Gγ2/Gβ1) in HEK293T cells expressing P2Y1-R
Format: cell-based
Parameters: ADP-modulated BRET / MRS2179-modulated BRET: unit not given here
Conditions: for G protein signaling, Ligand-modulated BRET (% of maximum MRS2179 mean value): Figure 4a, individual replicates; for Emax ± s.e.m.: normalized to the mean value of maximal MRS2179 response, in %; for Behaviour on P2Y1-R-dependent constitutive Gαq protein activation: HEK293T cells
Excerpt: As previously described, using a BRET^2 (bioluminescence resonance energy transfer)-based assay, we directly monitored the basal Gαq protein activation by measuring the interaction between Gαq and Gγ2 subunits of the Gαqβ1γ2 heterotrimer complex. Indeed, this assay is based on the non-radiative transfer between the Renilla reniformis luciferase (RLuc8) energy donor fused to the Gαq protein subunit and the fluorescent GFP2 energy acceptor fused to Gγ2 protein subunit (Fig. 1a). […] By contrast, ligand-independent constitutive receptor activation or agonist-induced receptor activation will promote Gαq/Gγ2 subunit dissociation, thereby leading to a decrease of the basal BRET signal (Fig. 1a). […] To preclude any P2Y1-R activation by a passive release of ADP by HEK293T cells, we performed similar experiments in the presence of high concentration of apyrase (0.2U/mL) to degrade any trace of ADP in the medium (Additional File 2: Fig. S2a). Under these conditions, P2Y1-R expression still induces a marked and significant decrease of the basal BRET signal compared to control cells (pcDNA3.1), thereby supporting a P2Y1-R-dependent constitutive activation of Gαq protein. […] Of note, because P2Y1-R and AT1-R were respectively Myc- and HA-tagged and were thus detected using different primary antibodies, their expression at the cell surface cannot be compared between each other’s.
Human P2Y1-R (NCBI Reference Sequence: NM_002563.2) and P2Y12-R (NCBI Reference Sequence: NM_022788.3) were fused to double Myc epitope and rat AT1-R (NCBI Reference Sequence: NM_030985.4) to HA tag in N-terminus extracellular region. Alternatively, receptors were also fused to Venus tag in C-terminus intracellular region. Plasmids encoding Gαq-RLuc8, GFP2-Gγ2 and untagged Gβ1 were previously described. ADP was purchased from Sigma-Aldrich/Merck (Darmstadt, Germany). […] The Gq inhibitor (FR900359) was kindly supplied by Evi Kostenis (University of Bonn. Germany).
G protein activation and β-arrestin 2 recruitment were performed as previously described. Briefly, vectors encoding receptors, Gαq-RLuc8, GFP2-Gγ2, Gβ1, or β-arrestin 2 were transiently cotransfected into HEK293T/17 cells as indicated in the figure legends. Forty-eight hours after transfection, cells were washed and resuspended in PBS containing 0.1% (w/v) glucose at room temperature and then distributed (80 μg proteins/well) in a 96-well microplate (PerkinElmer). For G protein activation experiments (BRET^2), cells were incubated in the absence (basal BRET signal) or in the presence of ligand for 1 minute. BRET signal between RLuc8 and GFP2 was measured after addition of the luciferase substrate coelenterazine 400a (5 μM). For β-arrestin 2 recruitment (BRET^1), cells were stimulated with ligands for 5 or 15 min. BRET signal was recorded after incubation with coelenterazine h (5 μM) for 8 min. For kinetics studies, BRET signal between RLuc and Venus was recorded at 20-s intervals at basal state for the 2 first minutes and then for 5 min after ligand injection. For saturation curves (BRET^1), the expression level of Venus- or RLuc-tagged protein was determined by direct measurement of total fluorescence and luminescence respectively. Total fluorescence was first measured with an excitation filter at 485 nm and an emission filter at 520 nm. Then, the same sample was incubated for 8 minutes with 5 μM coelenterazine h and the total luminescence was measured. BRET^2 and BRET^1 readings were collected using a modified Infinite F500 (Tecan Group Ltd). The BRET^2 signal was calculated by the ratio of emission of GFP2 (510–540 nm) to RLuc8 (370–450 nm) and the BRET^1 signal by the ratio of emission of Venus (520–570 nm) to RLuc (370–480 nm). […]

[1] = G protein signaling, Fig. 4a, 1 min

T1 sequence (P47900 whole entry): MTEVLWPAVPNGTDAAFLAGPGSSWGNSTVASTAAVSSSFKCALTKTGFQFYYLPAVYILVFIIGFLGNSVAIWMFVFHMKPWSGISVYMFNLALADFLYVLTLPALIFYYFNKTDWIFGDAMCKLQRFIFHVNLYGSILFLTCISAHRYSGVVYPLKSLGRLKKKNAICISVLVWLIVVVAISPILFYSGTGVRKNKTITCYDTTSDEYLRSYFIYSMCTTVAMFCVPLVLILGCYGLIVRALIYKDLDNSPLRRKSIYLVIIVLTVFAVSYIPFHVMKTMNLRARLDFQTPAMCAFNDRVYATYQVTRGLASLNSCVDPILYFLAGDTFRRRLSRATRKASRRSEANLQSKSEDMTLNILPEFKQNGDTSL

SMILES: CNc1nc(I)nc2c1ncn2[C@H]1C[C@H](OP(=O)(O)O)[C@]2(COP(=O)(O)O)C[C@H]12 [MRS2500, 2-iodo-N6-methyl-(N)-methanocarba-2′-deoxyadenosine-3′,5′-bisphosphate]
- G protein signaling, Ligand-modulated BRET (% of maximum MRS2179 mean value) ([Ligand] 1.00E-04 M): 155.404 % of maximum MRS2179 mean value and 138.849 % of maximum MRS2179 mean value and 107.119 % of maximum MRS2179 mean value and 132.185 % of maximum MRS2179 mean value and 125.72 % of maximum MRS2179 mean value and 141.754 % of maximum MRS2179 mean value
- G protein signaling, Ligand-modulated BRET (% of maximum MRS2179 mean value) ([Ligand] 1.00E-05 M): 122.914 % of maximum MRS2179 mean value and 111.352 % of maximum MRS2179 mean value and 93.6281 % of maximum MRS2179 mean value and 124.36 % of maximum MRS2179 mean value and 97.7584 % of maximum MRS2179 mean value and 107.998 % of maximum MRS2179 mean value
- G protein signaling, Ligand-modulated BRET (% of maximum MRS2179 mean value) ([Ligand] 1.00E-06 M): 73.5711 % of maximum MRS2179 mean value and 80.459 % of maximum MRS2179 mean value and 53.1675 % of maximum MRS2179 mean value and 68.2708 % of maximum MRS2179 mean value and 52.8113 % of maximum MRS2179 mean value and 71.2103 % of maximum MRS2179 mean value
- G protein signaling, Ligand-modulated BRET (% of maximum MRS2179 mean value) ([Ligand] 1.00E-07 M): 18.6255 % of maximum MRS2179 mean value and 25.6955 % of maximum MRS2179 mean value and 14.1554 % of maximum MRS2179 mean value and 20.945 % of maximum MRS2179 mean value and 1.4 % of maximum MRS2179 mean value and 18.5955 % of maximum MRS2179 mean value
- G protein signaling, Ligand-modulated BRET (% of maximum MRS2179 mean value) ([Ligand] 1.00E-08 M): 1.081 % of maximum MRS2179 mean value and -4.947 % of maximum MRS2179 mean value and -10.1975 % of maximum MRS2179 mean value and -7.982 % of maximum MRS2179 mean value and -25.6775 % of maximum MRS2179 mean value and 3.691 % of maximum MRS2179 mean value
- G protein signaling, Ligand-modulated BRET (% of maximum MRS2179 mean value) ([Ligand] 1.00E-09 M): -4.558 % of maximum MRS2179 mean value and -14.6104 % of maximum MRS2179 mean value and -16.9372 % of maximum MRS2179 mean value and -9.323 % of maximum MRS2179 mean value and -17.5921 % of maximum MRS2179 mean value and 4.08 % of maximum MRS2179 mean value
- G protein signaling, Ligand-modulated BRET (% of maximum MRS2179 mean value) ([Ligand] 1.00E-10 M): -10.8256 % of maximum MRS2179 mean value and -10.2571 % of maximum MRS2179 mean value and -9.064 % of maximum MRS2179 mean value and -13.8903 % of maximum MRS2179 mean value and -18.6423 % of maximum MRS2179 mean value and -6.511 % of maximum MRS2179 mean value
- EC50 [1]: 0.772 µM
- pEC50 ± s.e.m. [1]: 6.113 ± 0.07237
- Emax ± s.e.m. [1]: 127.2 ± 3.892
- Behaviour on P2Y1-R-dependent constitutive Gαq protein activation (result in words): behaved as inverse agonists

SMILES: Nc1ncnc2c1ncn2[C@@H]1O[C@H](COP(=O)(O)OP(=O)(O)O)[C@@H](O)[C@H]1O [ADP, adenosine diphosphate]
- ADP-induced change of Gαq/Gγ2 BRET signal (ADP 10 μM, 1 min, result in words): significant but moderate decrease of the BRET signal
- ADP-modulated BRET (P2Y1-R, ADP 10 μM, 1 min, individual experiments): -0.02511 and -0.01906 and -0.00821 and -0.04045 and -0.02327 and -0.02843

SMILES: CNc1ncnc2c1ncn2[C@H]1C[C@H](OP(=O)(O)O)[C@@H](COP(=O)(O)O)O1 [MRS2179]
- Maximal efficacy (Emax ± s.e.m.), MRS2179-modulated BRET (Fig. 1f, 1 min stimulation, difference in BRET signal with and without ligand): 0.1224 ± 0.01335
- EC50 (Fig. 1f, MRS2179 inverse agonism on Gαq protein activity, 1 min): 11.1 µM
- pEC50 ± s.e.m. (Fig. 1f, inverse agonism on Gαq protein activity, 1 min): 4.955 ± 0.1405
- G protein signaling, Ligand-modulated BRET (% of maximum MRS2179 mean value) ([Ligand] 1.00E-04 M): 119.465 % of maximum MRS2179 mean value and 98.3727 % of maximum MRS2179 mean value and 97.2091 % of maximum MRS2179 mean value and 96.9774 % of maximum MRS2179 mean value and 99.1946 % of maximum MRS2179 mean value and 88.7807 % of maximum MRS2179 mean value
- G protein signaling, Ligand-modulated BRET (% of maximum MRS2179 mean value) ([Ligand] 1.00E-05 M): 56.3081 % of maximum MRS2179 mean value and 33.7445 % of maximum MRS2179 mean value and 25.9535 % of maximum MRS2179 mean value and 52.677 % of maximum MRS2179 mean value and 40.3542 % of maximum MRS2179 mean value and 35.9046 % of maximum MRS2179 mean value
- G protein signaling, Ligand-modulated BRET (% of maximum MRS2179 mean value) ([Ligand] 1.00E-06 M): 9.486 % of maximum MRS2179 mean value and 10.5017 % of maximum MRS2179 mean value and 11.1842 % of maximum MRS2179 mean value and 16.1238 % of maximum MRS2179 mean value and -1.632 % of maximum MRS2179 mean value and 9.136 % of maximum MRS2179 mean value
- G protein signaling, Ligand-modulated BRET (% of maximum MRS2179 mean value) ([Ligand] 1.00E-07 M): -1.306 % of maximum MRS2179 mean value and -6.5129 % of maximum MRS2179 mean value and -11.3924 % of maximum MRS2179 mean value and -9.0003 % of maximum MRS2179 mean value and -8.705 % of maximum MRS2179 mean value and -1.657 % of maximum MRS2179 mean value
- G protein signaling, Ligand-modulated BRET (% of maximum MRS2179 mean value) ([Ligand] 1.00E-08 M): 0.5671 % of maximum MRS2179 mean value and -5.257 % of maximum MRS2179 mean value and -11.3188 % of maximum MRS2179 mean value and -7.6778 % of maximum MRS2179 mean value and -4.305 % of maximum MRS2179 mean value and -3.069 % of maximum MRS2179 mean value
- G protein signaling, Ligand-modulated BRET (% of maximum MRS2179 mean value) ([Ligand] 1.00E-09 M): -1.107 % of maximum MRS2179 mean value and -5.538 % of maximum MRS2179 mean value and -15.6317 % of maximum MRS2179 mean value and -13.6938 % of maximum MRS2179 mean value and -9.3466 % of maximum MRS2179 mean value and -3.722 % of maximum MRS2179 mean value
- G protein signaling, Ligand-modulated BRET (% of maximum MRS2179 mean value) ([Ligand] 1.00E-10 M): -2.846 % of maximum MRS2179 mean value and -13.4143 % of maximum MRS2179 mean value and -1.422 % of maximum MRS2179 mean value and -10.0078 % of maximum MRS2179 mean value and -9.182 % of maximum MRS2179 mean value and 0.7769 % of maximum MRS2179 mean value
- EC50 [1]: 15.2 µM
- pEC50 ± s.e.m. [1]: 4.817 ± 0.0671
- Emax ± s.e.m. [1]: 115.7 ± 5.057
- Behaviour on P2Y1-R-dependent constitutive Gαq protein activation (result in words): inverse agonist
- MRS2179-modulated BRET ([MRS2179] 1.00E-04 M, 1 min): 0.06995 and 0.1332 and 0.1164 and 0.136 and 0.09077
